Test results published in ChEMBL document CHEMBL1909046, “DrugMatrix in vitro pharmacology data”.
Where a SMILES comes first, the peptide text is derived from it. Bridges are numbered along the chain shown (N, C = ends). [ ]: non-standard residue; d: D form. The star is where a group is joined. Ileψ(thiazoline)Cys = CC[C@H](C)[C@H](N)C1=N[C@H](C(=O)*)CS1; dOrn = NCCC[C@@H](N)C(=O)O

Legend:
[1] = target: 5-hydroxytryptamine receptor 4 (Cavia porcellus, UniProt O70528); format: cell membranes, Dunkin-Hartley, Striatum, Membrane; note: in other assays of this panel Not Active means under 50% inhibition at 10 µM
[2] = target: T1, C-C chemokine receptor type 4 (Homo sapiens, UniProt P51679); format: cell membranes, Membrane; conditions: chem-1; note: in other assays of this panel Not Active means under 50% inhibition at 10 µM
T1 sequence (P51679 whole entry): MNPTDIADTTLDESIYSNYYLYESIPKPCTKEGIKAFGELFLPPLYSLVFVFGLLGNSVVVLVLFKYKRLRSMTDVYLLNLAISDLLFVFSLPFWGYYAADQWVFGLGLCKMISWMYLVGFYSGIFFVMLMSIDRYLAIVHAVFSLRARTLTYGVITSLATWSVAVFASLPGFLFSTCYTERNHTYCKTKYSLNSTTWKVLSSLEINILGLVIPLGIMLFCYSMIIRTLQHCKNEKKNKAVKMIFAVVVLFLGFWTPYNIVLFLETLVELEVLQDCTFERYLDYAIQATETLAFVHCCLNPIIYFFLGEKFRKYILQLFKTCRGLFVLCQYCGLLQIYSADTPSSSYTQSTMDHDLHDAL

[3] = DRUGMATRIX: Purinergic P2X radioligand binding (ligand: [3H] alpha, beta-Methylene-ATP); format: cell membranes, Oryctolagus cuniculus, New Zealand albino, Urinary bladder, Membrane; conditions: Not Active = under 50% inhibition at 10 µM
[4] = DRUGMATRIX: Glutamate, Kainate radioligand binding (ligand: [3H] Kainic acid); format: cell membranes, Rattus norvegicus, Wistar, Brain, Membrane; conditions: Not Active = under 50% inhibition at 10 µM
[5] = target: Tyrosine-protein kinase Fyn (Homo sapiens, UniProt P06241); assay: biochemical; format: cell-based, Insect cells; conditions: insect cells;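 note: enzymatic inhibition of Fyn kinase activity measured with Poly(Glu:Tyr) as the phosphorylation substrate; in other assays of this panel Not Active means under 50% inhibition at 10 µM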
Leukotriene C4 synthase = target: T2, Leukotriene C4 synthase (Cavia porcellus, UniProt A6XA80); assay: biochemical; format: tissue-based, Lung;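 note: enzyme inhibition assay of leukotriene C4 synthase, using LTA4 as the substrate; in other assays of this panel Not Active means under 50% inhibition at 10 µM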
T2 sequence (A6XA80 whole entry): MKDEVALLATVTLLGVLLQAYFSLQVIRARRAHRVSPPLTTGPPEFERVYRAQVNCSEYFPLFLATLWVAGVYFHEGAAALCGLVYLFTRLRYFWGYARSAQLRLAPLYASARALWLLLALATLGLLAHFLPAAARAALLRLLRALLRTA

Histamine H2 receptor = Histamine H2 receptor (Homo sapiens, UniProt P25021); format: cell membranes, CHO-K1, Membrane; conditions: cho-k1; note: in other assays of this panel Not Active means under 50% inhibition at 10 µM
[6] = DRUGMATRIX: Phosphodiesterase PDE3 enzyme inhibition (substrate: [3H]cAMP + cAMP); format: tissue-based, Homo sapiens; conditions: platelet; Not Active = under 50% inhibition at 10 µM
[7] = DRUGMATRIX: Glutamate, NMDA, Phencyclidine radioligand binding (ligand: [3H] TCP); format: cell membranes, Rattus norvegicus, Wistar, Cerebral cortex, Membrane; conditions: Not Active = under 50% inhibition at 10 µM
Substance-K receptor = target: T3, Substance-K receptor (Homo sapiens, UniProt P21452); format: cell membranes, CHO, Membrane; conditions: cho; note: in other assays of this panel Not Active means under 50% inhibition at 10 µM
T3 sequence (P21452 whole entry): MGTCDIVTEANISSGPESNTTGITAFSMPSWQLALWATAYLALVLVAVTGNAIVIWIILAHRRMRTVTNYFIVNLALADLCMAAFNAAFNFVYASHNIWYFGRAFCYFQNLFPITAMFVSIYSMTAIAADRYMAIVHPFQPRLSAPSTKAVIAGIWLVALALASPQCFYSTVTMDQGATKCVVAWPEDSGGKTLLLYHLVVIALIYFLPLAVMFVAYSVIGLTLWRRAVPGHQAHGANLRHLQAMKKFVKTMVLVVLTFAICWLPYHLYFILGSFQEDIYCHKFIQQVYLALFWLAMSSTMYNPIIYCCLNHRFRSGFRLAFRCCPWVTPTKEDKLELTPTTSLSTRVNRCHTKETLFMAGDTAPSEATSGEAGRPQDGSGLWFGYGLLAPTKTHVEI

[8] = target: Beta-3 adrenergic receptor (Homo sapiens, UniProt P13945); assay: DRUGMATRIX: Adrenergic beta3 radioligand binding (ligand: [125I] Cyanopindolol); format: cell membranes, HEK293, Membrane; conditions: hek293; Not Active = under 50% inhibition at 10 µM
D(4) dopamine receptor = target: T4, D(4) dopamine receptor (Homo sapiens, UniProt P21917); assay: DRUGMATRIX: Dopamine D4.2 radioligand binding (ligand: [3H] Spiperone); format: cell membranes, CHO-K1, Membrane; conditions: cho-k1; Not Active = under 50% inhibition at 10 µM
T4 sequence (P21917 whole entry): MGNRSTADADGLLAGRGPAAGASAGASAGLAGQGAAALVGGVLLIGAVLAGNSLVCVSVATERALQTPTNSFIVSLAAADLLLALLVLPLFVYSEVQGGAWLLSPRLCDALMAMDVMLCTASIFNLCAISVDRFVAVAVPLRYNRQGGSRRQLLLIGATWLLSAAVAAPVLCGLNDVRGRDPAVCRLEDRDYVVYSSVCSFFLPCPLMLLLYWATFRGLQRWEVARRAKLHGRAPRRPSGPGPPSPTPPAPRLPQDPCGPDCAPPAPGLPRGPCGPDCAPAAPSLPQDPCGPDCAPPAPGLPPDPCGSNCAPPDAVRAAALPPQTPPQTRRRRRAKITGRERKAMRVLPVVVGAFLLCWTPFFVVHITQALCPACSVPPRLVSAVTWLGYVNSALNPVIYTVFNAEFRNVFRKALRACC

[9] = target: Sodium-dependent dopamine transporter (Homo sapiens, UniProt Q01959); assay: DRUGMATRIX: Dopamine Transporter radioligand binding (ligand: [125I] RTI-55); format: cell membranes, CHO-K1, Membrane; conditions: cho-k1; Not Active = under 50% inhibition at 10 µM
Cytochrome P450 2C19 = Cytochrome P450 2C19 (Homo sapiens, UniProt P33261); conditions: bti-tn-5b1-4; note: in other assays of this panel Not Active means under 50% inhibition at 10 µM
[10] = target: T5, Muscarinic acetylcholine receptor M4 (Homo sapiens, UniProt P08173); format: cell membranes, CHO-K1, Membrane; conditions: cho-k1; note: in other assays of this panel Not Active means under 50% inhibition at 10 µM
T5 sequence (P08173 whole entry): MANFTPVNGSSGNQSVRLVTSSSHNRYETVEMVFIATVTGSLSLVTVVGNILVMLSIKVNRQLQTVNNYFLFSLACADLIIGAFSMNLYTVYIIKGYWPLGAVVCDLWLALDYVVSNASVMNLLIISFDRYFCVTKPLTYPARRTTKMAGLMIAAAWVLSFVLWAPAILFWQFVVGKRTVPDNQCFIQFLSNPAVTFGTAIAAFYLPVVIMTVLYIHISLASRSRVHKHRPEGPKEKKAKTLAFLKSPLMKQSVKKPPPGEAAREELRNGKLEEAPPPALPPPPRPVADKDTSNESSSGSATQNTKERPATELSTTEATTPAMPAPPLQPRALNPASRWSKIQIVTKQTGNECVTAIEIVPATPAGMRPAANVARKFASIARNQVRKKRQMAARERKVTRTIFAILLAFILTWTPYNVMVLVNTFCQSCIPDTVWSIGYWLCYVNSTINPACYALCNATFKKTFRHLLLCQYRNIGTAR

[11] = target: C-C chemokine receptor type 2 (Homo sapiens, UniProt P41597); format: cell membranes, CHO-K1, Membrane; conditions: cho-k1; note: in other assays of this panel Not Active means under 50% inhibition at 10 µM
[12] = DRUGMATRIX: Sigma2 radioligand binding (ligand: [3H] Ifenprodil); format: cell membranes, Rattus norvegicus, Wistar, Brain, Membrane; conditions: Not Active = under 50% inhibition at 10 µM

Sequence of C-C chemokine receptor type 2 (P41597 whole entry): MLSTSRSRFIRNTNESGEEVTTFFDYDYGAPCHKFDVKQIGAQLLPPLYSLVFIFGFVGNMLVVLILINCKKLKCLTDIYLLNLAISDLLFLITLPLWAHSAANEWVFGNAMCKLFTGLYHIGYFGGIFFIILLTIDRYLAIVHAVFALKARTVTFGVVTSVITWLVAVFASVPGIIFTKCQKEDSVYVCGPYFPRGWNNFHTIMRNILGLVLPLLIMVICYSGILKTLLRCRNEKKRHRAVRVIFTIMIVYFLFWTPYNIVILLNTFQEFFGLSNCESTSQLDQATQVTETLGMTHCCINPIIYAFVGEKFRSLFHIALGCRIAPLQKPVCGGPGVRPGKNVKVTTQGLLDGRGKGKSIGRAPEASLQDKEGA
Sequence of Sodium-dependent dopamine transporter (Q01959 whole entry): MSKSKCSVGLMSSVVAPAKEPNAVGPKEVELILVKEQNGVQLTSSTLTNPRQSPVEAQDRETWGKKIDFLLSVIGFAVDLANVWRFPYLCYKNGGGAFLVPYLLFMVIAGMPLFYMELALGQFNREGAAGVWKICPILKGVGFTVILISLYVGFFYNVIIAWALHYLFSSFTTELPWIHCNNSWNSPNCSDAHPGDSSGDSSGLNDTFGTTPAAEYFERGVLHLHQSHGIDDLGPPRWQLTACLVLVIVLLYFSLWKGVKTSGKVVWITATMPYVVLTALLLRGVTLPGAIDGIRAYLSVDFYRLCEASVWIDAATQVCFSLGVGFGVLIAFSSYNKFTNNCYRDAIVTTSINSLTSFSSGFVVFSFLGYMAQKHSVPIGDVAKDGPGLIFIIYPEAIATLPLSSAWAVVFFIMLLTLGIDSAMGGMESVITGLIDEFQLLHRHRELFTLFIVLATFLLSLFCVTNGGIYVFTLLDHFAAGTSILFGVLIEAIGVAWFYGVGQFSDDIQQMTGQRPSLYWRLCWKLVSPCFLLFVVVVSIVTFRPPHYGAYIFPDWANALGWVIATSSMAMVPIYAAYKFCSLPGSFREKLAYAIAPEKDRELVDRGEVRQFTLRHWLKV
Sequence of Beta-3 adrenergic receptor (P13945 whole entry): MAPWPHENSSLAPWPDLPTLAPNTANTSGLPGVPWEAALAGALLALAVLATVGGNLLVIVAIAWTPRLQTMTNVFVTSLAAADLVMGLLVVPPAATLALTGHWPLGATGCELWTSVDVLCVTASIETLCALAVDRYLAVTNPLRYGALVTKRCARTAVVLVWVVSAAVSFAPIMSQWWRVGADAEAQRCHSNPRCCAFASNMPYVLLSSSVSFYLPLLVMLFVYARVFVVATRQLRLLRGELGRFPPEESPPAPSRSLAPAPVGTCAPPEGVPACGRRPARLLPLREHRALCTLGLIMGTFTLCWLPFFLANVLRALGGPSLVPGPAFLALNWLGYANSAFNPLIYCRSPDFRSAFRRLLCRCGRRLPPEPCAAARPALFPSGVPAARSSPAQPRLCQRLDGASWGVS
Sequence of Histamine H2 receptor (P25021 whole entry): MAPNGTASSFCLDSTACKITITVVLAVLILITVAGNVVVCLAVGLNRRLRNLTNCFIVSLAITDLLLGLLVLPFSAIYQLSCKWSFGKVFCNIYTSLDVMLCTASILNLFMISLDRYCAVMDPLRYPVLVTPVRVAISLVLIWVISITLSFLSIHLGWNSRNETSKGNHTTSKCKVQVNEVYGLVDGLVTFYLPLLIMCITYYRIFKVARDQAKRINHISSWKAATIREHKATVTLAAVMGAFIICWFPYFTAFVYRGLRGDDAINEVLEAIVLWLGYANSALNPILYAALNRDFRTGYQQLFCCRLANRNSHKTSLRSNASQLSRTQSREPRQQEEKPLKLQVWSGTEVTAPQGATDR
Sequence of 5-hydroxytryptamine receptor 4 (O70528 whole entry): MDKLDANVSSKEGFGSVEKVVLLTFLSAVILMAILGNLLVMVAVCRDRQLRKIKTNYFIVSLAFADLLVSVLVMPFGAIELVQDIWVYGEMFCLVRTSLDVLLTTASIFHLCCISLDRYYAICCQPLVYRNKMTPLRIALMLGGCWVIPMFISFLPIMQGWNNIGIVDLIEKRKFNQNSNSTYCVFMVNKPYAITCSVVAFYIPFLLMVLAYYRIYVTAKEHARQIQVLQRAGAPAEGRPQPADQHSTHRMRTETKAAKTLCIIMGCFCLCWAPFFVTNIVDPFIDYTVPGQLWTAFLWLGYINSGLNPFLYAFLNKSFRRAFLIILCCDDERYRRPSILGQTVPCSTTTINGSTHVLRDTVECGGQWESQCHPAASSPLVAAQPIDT
Sequence of Cytochrome P450 2C19 (P33261 whole entry): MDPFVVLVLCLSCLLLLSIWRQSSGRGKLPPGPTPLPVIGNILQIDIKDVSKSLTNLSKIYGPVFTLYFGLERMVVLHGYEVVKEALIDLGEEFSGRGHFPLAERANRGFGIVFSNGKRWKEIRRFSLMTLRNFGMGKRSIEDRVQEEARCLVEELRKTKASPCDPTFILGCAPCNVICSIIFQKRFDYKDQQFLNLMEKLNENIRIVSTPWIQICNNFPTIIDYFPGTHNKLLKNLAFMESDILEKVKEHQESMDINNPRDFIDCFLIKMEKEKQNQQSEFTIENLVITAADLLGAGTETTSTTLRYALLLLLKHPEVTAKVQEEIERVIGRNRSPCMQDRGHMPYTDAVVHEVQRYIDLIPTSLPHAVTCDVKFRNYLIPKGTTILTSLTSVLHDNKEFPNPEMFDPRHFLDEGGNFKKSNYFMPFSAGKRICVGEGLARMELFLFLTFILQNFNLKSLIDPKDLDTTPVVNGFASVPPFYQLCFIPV
Sequence of Tyrosine-protein kinase Fyn (P06241 whole entry): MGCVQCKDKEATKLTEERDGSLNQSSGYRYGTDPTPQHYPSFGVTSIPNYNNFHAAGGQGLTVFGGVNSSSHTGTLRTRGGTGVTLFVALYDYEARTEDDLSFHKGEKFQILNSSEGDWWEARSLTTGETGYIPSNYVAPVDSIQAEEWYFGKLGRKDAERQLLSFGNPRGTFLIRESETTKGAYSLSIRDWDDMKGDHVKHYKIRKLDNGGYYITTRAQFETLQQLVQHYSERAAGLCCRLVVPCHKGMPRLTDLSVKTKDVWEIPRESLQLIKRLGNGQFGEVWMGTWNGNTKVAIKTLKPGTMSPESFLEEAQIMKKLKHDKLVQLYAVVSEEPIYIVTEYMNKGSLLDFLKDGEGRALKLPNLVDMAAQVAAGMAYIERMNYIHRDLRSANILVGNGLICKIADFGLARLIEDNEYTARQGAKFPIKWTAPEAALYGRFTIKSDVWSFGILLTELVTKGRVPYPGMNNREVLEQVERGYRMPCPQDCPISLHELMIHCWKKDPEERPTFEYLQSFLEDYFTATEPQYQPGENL

C=C1[C@@H]2CCC3[C@@](CC[C@@H]4[C@H](C(=O)O)C[C@@H](O[C@@H]5O[C@H](CO)[C@@H](OS(=O)(=O)[O-])[C@H](OS(=O)(=O)[O-])[C@H]5OC(=O)CC(C)C)C[C@@]34C)(C2)[C@@H]1O.[K+].[K+] (some centres not stated) [ATRACTYLOSIDE]
Not Active: IC50 [1] | IC50 [2] | IC50 [3] | Ki [3] | IC50 [4] | Ki [4] | IC50 [5] | IC50 (Leukotriene C4 synthase) | IC50 (Histamine H2 receptor) | IC50 [6] | Ki [6] | IC50 [7] | Ki [7] | IC50 (Substance-K receptor) | IC50 [8] | IC50 (D(4) dopamine receptor) | IC50 [9] | IC50 (Cytochrome P450 2C19) | Ki (Cytochrome P450 2C19) | IC50 [10] | IC50 [11] | IC50 [12] | Ki [12]

CC1(C)S[C@@H]2[C@H](NC(=O)[C@H](NC(=O)N3CCNC3=O)c3ccccc3)C(=O)N2[C@H]1C(=O)O [AZLOCILLIN]
Not Active: IC50 [1] | IC50 [2] | IC50 [3] | Ki [3] | IC50 [4] | Ki [4] | IC50 [5] | IC50 (Leukotriene C4 synthase) | IC50 (Histamine H2 receptor) | IC50 [6] | Ki [6] | IC50 [7] | Ki [7] | IC50 (Substance-K receptor) | IC50 [8] | IC50 (D(4) dopamine receptor) | IC50 [9] | IC50 (Cytochrome P450 2C19) | Ki (Cytochrome P450 2C19) | IC50 [10] | IC50 [11] | IC50 [12] | Ki [12]

CC[C@H](C)[C@H](N)C1=N[C@H](C(=O)N[C@@H](CC(C)C)C(=O)N[C@H](CCC(=O)O)C(=O)N[C@H](C(=O)N[C@H]2CCCCNC(=O)[C@H](CC(N)=O)NC(=O)[C@@H](CC(=O)O)NC(=O)[C@H](Cc3cnc[nH]3)NC(=O)[C@@H](Cc3ccccc3)NC(=O)[C@H]([C@@H](C)CC)NC(=O)[C@@H](CCCN)NC2=O)[C@@H](C)CC)CS1 [BACITRACIN] ({Ileψ(thiazoline)Cys}-L[dE]IK[dOrn]I[dF]H[dD]N; lactam 4-C)
Not Active: IC50 [1] | IC50 [2] | IC50 [3] | Ki [3] | IC50 [4] | Ki [4] | IC50 [5] | IC50 (Leukotriene C4 synthase) | IC50 (Histamine H2 receptor) | IC50 [6] | Ki [6] | IC50 [7] | Ki [7] | IC50 (Substance-K receptor) | IC50 [8] | IC50 (D(4) dopamine receptor) | IC50 [9] | IC50 (Cytochrome P450 2C19) | Ki (Cytochrome P450 2C19) | IC50 [10] | IC50 [11] | IC50 [12] | Ki [12]

CCOC(=O)c1ccc(N)cc1 [BENZOCAINE]
Not Active: IC50 [1] | IC50 [2] | IC50 [3] | Ki [3] | IC50 [4] | Ki [4] | IC50 [5] | IC50 (Leukotriene C4 synthase) | IC50 (Histamine H2 receptor) | IC50 [6] | Ki [6] | IC50 [7] | Ki [7] | IC50 (Substance-K receptor) | IC50 [8] | IC50 (D(4) dopamine receptor) | IC50 [9] | IC50 (Cytochrome P450 2C19) | Ki (Cytochrome P450 2C19) | IC50 [10] | IC50 [11] | IC50 [12] | Ki [12]
